One assay has as its target T1, Recombinant human TPH1 (MBP tagged) (Homo sapiens, UniProt P17752).
T1 construct: cloning full length human TPH1 cDNA in to a bacterial pMAL-c5E expression vector; made in house; host or cells: E. coli BL21 (DE3)
T1 sequence (P17752 1-444): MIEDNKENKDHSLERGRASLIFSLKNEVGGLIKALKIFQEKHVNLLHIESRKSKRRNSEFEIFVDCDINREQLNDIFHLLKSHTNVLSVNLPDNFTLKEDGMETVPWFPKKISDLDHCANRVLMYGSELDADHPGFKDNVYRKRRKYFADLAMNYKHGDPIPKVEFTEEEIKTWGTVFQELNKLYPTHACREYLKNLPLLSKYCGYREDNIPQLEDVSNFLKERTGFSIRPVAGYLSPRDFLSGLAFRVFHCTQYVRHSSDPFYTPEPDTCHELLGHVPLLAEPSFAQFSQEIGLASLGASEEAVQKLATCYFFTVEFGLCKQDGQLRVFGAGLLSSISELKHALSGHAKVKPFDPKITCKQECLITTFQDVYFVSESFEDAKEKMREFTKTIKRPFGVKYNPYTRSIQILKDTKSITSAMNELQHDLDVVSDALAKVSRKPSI
Kind of assay: TPH1 in vitro inhibition assay (kinetic fluorescence). The assay is classed as biochemical. As to conditions: TPH1 Range (TPH1 inhibition IC50). The gist of the method: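 Final mix: 15 nM MBP-TPH1, 30 μM Trp, 36 μM 6-methyltetrahydropterin, 25 μM ferrous ammonium sulfate, 50 mM MES pH 7.1, 1% DMSO, room temperature.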
With `Nc1nc(O[C@H](c2ccc(Cl)cc2-c2ccccc2)C(F)(F)F)cc(N2CCC3(CC2)CN[C@@H](C(=O)O)C3)n1` [Example 54h, (R)-8-(2-amino-6-((R)-1-(5-chloro-[1,1′-biphenyl]-2-yl)-2,2,2-trifluoroethoxy)pyrimidin-4-yl)-2,8-diazaspiro[4.5]decane-3-carboxylic acid], the IC50 lay in the range of 3000 to 10000 nM.

As for `Nc1nc(O[C@@H](c2ccc(Cl)cc2-c2ccccc2)C(F)(F)F)cc(N2CCC3(CC2)CN[C@@H](C(=O)O)C3)n1` [Example 54i, (R)-8-(2-amino-6-((S)-1-(5-chloro-[1,1′-biphenyl]-2-yl)-2,2,2-trifluoroethoxy)pyrimidin-4-yl)-2,8-diazaspiro[4.5]decane-3-carboxylic acid], the IC50 lay in the range of 3000 to 10000 nM.

In the case of `Nc1nc(O[C@@H](c2ccc(Cl)cc2-c2ccccc2)C(F)(F)F)cc(N2CCC3(CC2)CN[C@H](C(=O)O)C3)n1` [Example 54j, (S)-8-(2-amino-6-((S)-1-(5-chloro-[1,1′-biphenyl]-2-yl)-2,2,2-trifluoroethoxy)pyrimidin-4-yl)-2,8-diazaspiro[4.5]decane-3-carboxylic acid], the IC50 was in the range of 50 to 300 nM.

Consider `Cc1ccn(-c2cc(-c3ccc(C)c(C)c3)ccc2[C@H](Oc2cc(N3CCC4(CC3)CN[C@H](C(=O)O)C4)nc(N)n2)C(F)(F)F)n1` [Example 54k, (S)-8-(2-amino-6-((S)-1-(3′,4′-dimethyl-3-(3-methyl-1H-pyrazol-1-yl)-[1,1′-biphenyl]-4-yl)-2,2,2-trifluoroethoxy)pyrimidin-4-yl)-2,8-diazaspiro[4.5]decane-3-carboxylic acid], for which the IC50 was in the range of 50 to 300 nM.

Turning to `Cc1ccn(-c2cc(-c3ccc(C)c(C)c3)ccc2[C@H](Oc2cc(N3CCC4(CC3)CN[C@@H](C(=O)O)C4)nc(N)n2)C(F)(F)F)n1` [Example 54l, (R)-8-(2-amino-6-((S)-1-(3′,4′-dimethyl-3-(3-methyl-1H-pyrazol-1-yl)-[1,1′-biphenyl]-4-yl)-2,2,2-trifluoroethoxy)pyrimidin-4-yl)-2,8-diazaspiro[4.5]decane-3-carboxylic acid], the IC50 fell in the range of 3000 to 10000 nM.

In the case of `Cc1ccn(-c2cc(-c3ccc(C)c(C)c3)ccc2[C@@H](Oc2cc(N3CCC4(CC3)CN[C@@H](C(=O)O)C4)nc(N)n2)C(F)(F)F)n1` [Example 54m, (R)-8-(2-amino-6-((R)-1-(3′,4′-dimethyl-3-(3-methyl-1H-pyrazol-1-yl)-[1,1′-biphenyl]-4-yl)-2,2,2-trifluoroethoxy)pyrimidin-4-yl)-2,8-diazaspiro[4.5]decane-3-carboxylic acid], the IC50 is 300 to 3000 nM.

Take `CSc1ccc2cc(-c3ccc([C@@H](Oc4cc(N5CCC6(CC5)CN[C@H](C(=O)O)C6)nc(N)n4)C(F)(F)F)cc3)ccc2n1` [Example 55ai, (S)-8-(2-amino-6-((R)-2,2,2-trifluoro-1-(4-(2-(methylthio)quinolin-6-yl)phenyl)ethoxy)pyrimidin-4-yl)-2,8-diazaspiro[4.5]decane-3-carboxylic acid]: the IC50 was less than 50 nM.

The same assay, now with this note: read-out: TPH1 Range (TPH1 inhibition IC50).
Consider `Nc1nc(O[C@H](c2ccc(-c3ccccc3)cc2-c2ccccc2)C(F)(F)F)cc(N2CCC3(CC2)CN[C@H](C(=O)O)C3)n1` [Example 54g, (S)-8-(6-((R)-1-([1,1′:3′,1″-terphenyl]-4′-yl)-2,2,2-trifluoroethoxy)-2-aminopyrimidin-4-yl)-2,8-diazaspiro[4.5]decane-3-carboxylic acid], for which the IC50 is 50 to 300 nM.

Take `Nc1nc(O[C@H](c2ccc(-c3ccccc3)cc2)C(F)(F)F)cc(N2CCC3(CC2)CN[C@H](C(=O)O)C3)n1` [Example 55a, (S)-8-(6-((R)-1-([1,1′-biphenyl]-4-yl)-2,2,2-trifluoroethoxy)-2-aminopyrimidin-4-yl)-2,8-diazaspiro[4.5]decane-3-carboxylic acid]: the IC50 was 50 to 300 nM.

On to `COc1cc(C#N)cc(-c2ccc([C@@H](Oc3cc(N4CCC5(CC4)CN[C@H](C(=O)O)C5)nc(N)n3)C(F)(F)F)cc2)c1` [Example 55aa, (S)-8-(2-amino-6-((R)-1-(3′-cyano-5′-methoxy-[1,1′-biphenyl]-4-yl)-2,2,2-trifluoroethoxy)pyrimidin-4-yl)-2,8-diazaspiro[4.5]decane-3-carboxylic acid], for which the IC50 is 50 to 300 nM.

Regarding `Nc1nc(O[C@H](c2ccc(-c3ccc4[nH]c(=O)oc4c3)cc2)C(F)(F)F)cc(N2CCC3(CC2)CN[C@H](C(=O)O)C3)n1` [Example 55ab, (S)-8-(2-amino-6-((R)-2,2,2-trifluoro-1-(4-(2-oxo-2,3-dihydrobenzo[d]oxazol-6-yl)phenyl)ethoxy)pyrimidin-4-yl)-2,8-diazaspiro[4.5]decane-3-carboxylic acid], the IC50 lay within 50 to 300 nM.

As for `Cc1c[nH]c2ccc(-c3ccc([C@@H](Oc4cc(N5CCC6(CC5)CN[C@H](C(=O)O)C6)nc(N)n4)C(F)(F)F)cc3)cc12` [Example 55ac, (S)-8-(2-amino-6-((R)-2,2,2-trifluoro-1-(4-(3-methyl-1H-indol-5-yl)phenyl)ethoxy)pyrimidin-4-yl)-2,8-diazaspiro[4.5]decane-3-carboxylic acid], the IC50 fell in the range of 50 to 300 nM.

Regarding `COC(=O)c1ccc(-c2ccc([C@@H](Oc3cc(N4CCC5(CC4)CN[C@H](C(=O)O)C5)nc(N)n3)C(F)(F)F)cc2)cc1OC(C)=O` [Example 55ad, (S)-8-(6-((R)-1-(3′-acetoxy-4′-(methoxycarbonyl)-[1,1′-biphenyl]-4-yl)-2,2,2-trifluoroethoxy)-2-aminopyrimidin-4-yl)-2,8-diazaspiro[4.5]decane-3-carboxylic acid], the IC50 fell in the range of 50 to 300 nM.

On to `Nc1nc(O[C@H](c2ccc(-c3ccc4ccc(=O)oc4c3)cc2)C(F)(F)F)cc(N2CCC3(CC2)CN[C@H](C(=O)O)C3)n1` [Example 55ae, (S)-8-(2-amino-6-((R)-2,2,2-trifluoro-1-(4-(2-oxo-2H-chromen-7-yl)phenyl)ethoxy)pyrimidin-4-yl)-2,8-diazaspiro[4.5]decane-3-carboxylic acid], for which the IC50 fell in the range of 300 to 3000 nM.

In the case of `Cn1cc(-c2ccc([C@@H](Oc3cc(N4CCC5(CC4)CN[C@H](C(=O)O)C5)nc(N)n3)C(F)(F)F)cc2)ccc1=O` [Example 55af, (S)-8-(2-amino-6-((R)-2,2,2-trifluoro-1-(4-(1-methyl-6-oxo-1,6-dihydropyridin-3-yl)phenyl)ethoxy)pyrimidin-4-yl)-2,8-diazaspiro[4.5]decane-3-carboxylic acid], the IC50 was 300 to 3000 nM.

Turning to `Nc1nc(O[C@H](c2ccc(-c3ccc(C(=O)O)c(O)c3)cc2)C(F)(F)F)cc(N2CCC3(CC2)CN[C@H](C(=O)O)C3)n1` [Example 55ag, (S)-8-(2-amino-6-((R)-1-(4′-carboxy-3′-hydroxy-[1,1′-biphenyl]-4-yl)-2,2,2-trifluoroethoxy)pyrimidin-4-yl)-2,8-diazaspiro[4.5]decane-3-carboxylic acid], the IC50 is 50 to 300 nM.

Consider `COc1ccc2cc(-c3ccc([C@@H](Oc4cc(N5CCC6(CC5)CN[C@H](C(=O)O)C6)nc(N)n4)C(F)(F)F)cc3)ccc2n1` [Example 55ah, (S)-8-(2-amino-6-((R)-2,2,2-trifluoro-1-(4-(2-methoxyquinolin-6-yl)phenyl)ethoxy)pyrimidin-4-yl)-2,8-diazaspiro[4.5]decane-3-carboxylic acid], for which the IC50 was in the range of 50 to 300 nM.

With `CN1C(=O)CCc2cc(-c3ccc([C@@H](Oc4cc(N5CCC6(CC5)CN[C@H](C(=O)O)C6)nc(N)n4)C(F)(F)F)cc3)ccc21` [Example 55aj, (S)-8-(2-amino-6-((R)-2,2,2-trifluoro-1-(4-(1-methyl-2-oxo-1,2,3,4-tetrahydroquinolin-6-yl)phenyl)ethoxy)pyrimidin-4-yl)-2,8-diazaspiro[4.5]decane-3-carboxylic acid], the IC50 was in the range of 50 to 300 nM.

`COc1cc(F)cc(-c2ccc([C@@H](Oc3cc(N4CCC5(CC4)CN[C@H](C(=O)O)C5)nc(N)n3)C(F)(F)F)cc2)c1` [Example 55ao, (S)-8-(2-amino-6-((R)-2,2,2-trifluoro-1-(3′-fluoro-5′-methoxy-[1,1′-biphenyl]-4-yl)ethoxy)pyrimidin-4-yl)-2,8-diazaspiro[4.5]decane-3-carboxylic acid]: the IC50 fell in the range of 50 to 300 nM.

`Nc1nc(O[C@H](c2ccc(-c3cc(F)cc(F)c3)cc2)C(F)(F)F)cc(N2CCC3(CC2)CN[C@H](C(=O)O)C3)n1` [Example 55ap, (S)-8-(2-amino-6-((R)-1-(3′,5′-difluoro-[1,1′-biphenyl]-4-yl)-2,2,2-trifluoroethoxy)pyrimidin-4-yl)-2,8-diazaspiro[4.5]decane-3-carboxylic acid]: the IC50 was 50 to 300 nM.

For the compound `COc1ccc(-c2ccc([C@@H](Oc3cc(N4CCC5(CC4)CN[C@H](C(=O)O)C5)nc(N)n3)C(F)(F)F)cc2)cc1` [Example 55aq, (S)-8-(2-amino-6-((R)-2,2,2-trifluoro-1-(4′-methoxy-[1,1′-biphenyl]-4-yl)ethoxy)pyrimidin-4-yl)-2,8-diazaspiro[4.5]decane-3-carboxylic acid], the IC50 fell in the range of 50 to 300 nM.

As for `COc1ccccc1-c1ccc([C@@H](Oc2cc(N3CCC4(CC3)CN[C@H](C(=O)O)C4)nc(N)n2)C(F)(F)F)cc1` [Example 55ar, (S)-8-(2-amino-6-((R)-2,2,2-trifluoro-1-(2′-methoxy-[1,1′-biphenyl]-4-yl)ethoxy)pyrimidin-4-yl)-2,8-diazaspiro[4.5]decane-3-carboxylic acid], the IC50 fell in the range of 50 to 300 nM.

Usually IC50 stands for the point on the concentration scale where inhibition reaches its midpoint.

Source of the values: US11759462B2, “Spirocyclic compounds as tryptophan hydroxylase inhibitors” (priority 2013, dated 2023).
